Where “and” joins values, the source holds several entries; their conditions need not be identical. Equal values may be shown once.
Key:
[1] = target: Replicase polyprotein 1ab (Severe acute respiratory syndrome coronavirus 2, UniProt P0DTD1); test: Inhibition of SARS-CoV-2 3CLpro using Dabcyl-KTSAVLQSGFRKM-Glu(Edans) as substrate preincubated for 1 hrs in presence of 2 mM GSH followed by substrate addition and measured after 30 mins by FRET assay
[2] = target: Replicase polyprotein 1ab (Severe acute respiratory syndrome coronavirus 2) (UniProt P0DTD1); test: Inhibition of SARS-CoV-2 3CLpro using Dabcyl-KTSAVLQSGFRKM-Glu(Edans) as substrate at 100 uM preincubated for 1 hrs in presence of 2 mM GSH followed by substrate addition and measured after 30 mins by FRET assay relative to control; conditions: time 1.5 hrs
[3] = Inhibition of MERS-CoV 3CLpro using Dabcyl-KTSAVLQSGFRKM-Glu(Edans) as substrate preincubated 1 hr in presence of 2 mM GSH followed by substrate addition and measured after 30 mins by FRET assay; parameters: species or system Middle East respiratory syndrome-related coronavirus
[4] = Inhibition of human cathepsin 1 using QXL520/HiLyteFlour 488 as substrate preincubated for 60 mins and measured after 30 mins by fluorescence based assay
[5] = Inhibition of C-terminal 6-His tagged recombinant SARS-CoV 3CLpro (Ser1 to Gln306 residues) extracted from Escherichia coli using Dabcyl-KTSAVLQSGFRKM-Glu(Edans) as substrate preincubated 1 hr in presence of 2 mM GSH followed by substrate addition and measured after 30 mins by FRET assay; parameters: species or system Severe acute respiratory syndrome-related coronavirus
[6] = target: Replicase polyprotein 1ab (Human coronavirus 229E, UniProt P0C6X1); test: Inhibition of hCoV-229E 3CLpro using Dabcyl-KTSAVLQSGFRKM-Glu(Edans) as substrate preincubated 1 hr in presence of 2 mM GSH followed by substrate addition and measured after 30 mins by FRET assay
[7] = target: T1, Calpain-1 catalytic subunit (Homo sapiens, UniProt P07384); test: Inhibition of human calpain 1 using (DABCYL)-TPLKSPPPSPR-(EDANS) as substrate incubated for 30 mins in presence of calcium ions and GSH and measured after 30 mins by fluorescence based assay
T1 sequence (P07384 whole entry): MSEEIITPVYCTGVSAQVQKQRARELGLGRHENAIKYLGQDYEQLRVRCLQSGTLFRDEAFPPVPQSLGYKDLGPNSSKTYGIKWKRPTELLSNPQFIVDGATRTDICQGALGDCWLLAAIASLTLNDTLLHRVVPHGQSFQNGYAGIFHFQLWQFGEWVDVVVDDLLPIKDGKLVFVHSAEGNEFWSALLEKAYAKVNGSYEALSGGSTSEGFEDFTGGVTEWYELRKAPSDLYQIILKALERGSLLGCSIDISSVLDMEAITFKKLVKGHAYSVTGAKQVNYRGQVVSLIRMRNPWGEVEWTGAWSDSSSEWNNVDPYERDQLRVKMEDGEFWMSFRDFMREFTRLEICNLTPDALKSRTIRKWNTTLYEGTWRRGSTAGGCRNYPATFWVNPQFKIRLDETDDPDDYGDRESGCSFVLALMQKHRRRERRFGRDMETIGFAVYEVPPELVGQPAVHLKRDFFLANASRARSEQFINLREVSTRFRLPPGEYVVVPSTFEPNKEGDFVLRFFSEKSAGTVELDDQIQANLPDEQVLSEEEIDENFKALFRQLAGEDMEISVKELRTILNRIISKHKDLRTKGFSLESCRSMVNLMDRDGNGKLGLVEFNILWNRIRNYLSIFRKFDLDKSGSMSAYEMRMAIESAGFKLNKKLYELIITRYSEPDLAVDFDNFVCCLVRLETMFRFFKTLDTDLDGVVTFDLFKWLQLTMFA

Human coronavirus 229E = test: Antiviral activity against HCoV-229E expressing renilla luciferase reporter gene infected in human Huh-7 cells pre-infected […] for 1 hr followed by compound addition and measured after 6 hrs by luciferase based assay; assay type: functional, organism-based
[8] = target: Replicase polyprotein 1ab (Severe acute respiratory syndrome coronavirus 2) (UniProt P0DTD1); test: Binding affinity to SARS-CoV-2 3CLpro assessed as change in melting temperature at 40 uM measured after 30 mins by SYPRO Orange staining based thermal shift assay

Replicase polyprotein 1ab (Human coronavirus 229E, UniProt P0C6X1), sequence (P0C6X1 2966-3267 limits assumed): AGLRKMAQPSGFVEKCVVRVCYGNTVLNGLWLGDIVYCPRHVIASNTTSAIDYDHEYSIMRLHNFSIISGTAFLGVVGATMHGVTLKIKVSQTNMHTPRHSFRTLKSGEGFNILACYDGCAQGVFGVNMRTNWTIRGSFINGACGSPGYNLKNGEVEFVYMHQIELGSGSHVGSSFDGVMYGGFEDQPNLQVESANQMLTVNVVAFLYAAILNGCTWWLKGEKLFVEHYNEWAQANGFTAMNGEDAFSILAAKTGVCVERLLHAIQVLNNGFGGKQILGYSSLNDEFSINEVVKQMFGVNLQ

| SMILES | pIC50 [1] | IC50 ([1]; read-out: IC50) | further results |
| --- | --- | --- | --- |
| CSc1nc2ccccc2n1C(=O)c1ccccc1C | < 4 | > 100000 nM | – |
| CSc1nc2ccccc2n1C(=O)c1ccc(F)cc1 | – | 3800 nM | – |
| Cc1ccc(C(=O)n2ncc3ccccc32)cc1 | < 4 | > 100000 nM | – |
| CCSc1nc2ccccc2n1C(=O)c1ccc(C)cc1 | – | 3760 nM | – |
| CSc1nc2cc(C)c(C)cc2n1C(=O)c1ccc(C)cc1 | – | – | inhibition [2]: 68% |
| Cc1ccc(C(=O)n2c(S)nc3ccccc32)cc1 | < 4 | > 100000 nM | – |
| CCc1ccc(C(=O)n2c(SC)nc3ccccc32)cc1 | – | 1800 nM | – |
| CSc1nc2cc3c(cc2n1C(=O)c1ccc(C)c(F)c1)OCCO3 | – | 270 nM | – |
| Cc1ccc(C(=O)n2cnc3ccccc32)cc1 | – | 6700 nM and 6660 nM | – |
| COc1nc2ccccc2n1C(=O)c1ccc(C)cc1 | < 4 | > 100000 nM | – |
| CSc1nc2ccc(Cl)cc2n1C(=O)c1ccc(C)cc1 | – | 890 nM | IC50 ([1]; read-out: pIC50 (converted)): 269 nM |
| CSc1nc2ccccc2n1Cc1ccc(C)cc1 | < 4 | > 100000 nM | – |
| CSc1nc2ccccc2n1C(C)=O | < 4 | > 100000 nM | – |
| Cc1ccc(C(=O)n2c(C)nc3ccccc32)cc1 | – | 3430 nM | – |
| CSc1nc2ccccc2n1C(=O)Oc1ccccc1 | < 4 | > 100000 nM | – |
| Cc1ccc(C(=O)n2ccc3ccccc32)cc1 | < 4 | > 100000 nM | – |
| CSc1nc2ccccc2n1C(=O)c1ccc(C(C)(C)C)cc1 | < 4 | > 100000 nM | – |
| Cc1ccc(C(=O)n2c(C#N)nc3ccccc32)cc1 | < 4 | > 100000 nM | – |
| Cc1ccc(C(=O)n2c(C(F)(F)F)nc3ccccc32)cc1 | – | 17000 nM | – |
| CSc1nc2cc(F)ccc2n1C(=O)c1ccc(C)cc1 | – | 270 nM | – |

| SMILES | pIC50 [1] | IC50 ([1]; read-out: IC50) | further results |
| --- | --- | --- | --- |
| COc1cc(C(=O)n2c(SC)nc3ccccc32)ccc1C | – | 660 nM | – |
| CSc1nc2ccccc2n1C(=O)c1ccc(C)c(C)c1 | – | 1000 nM | – |
| CSc1nc2ccccc2n1C(=O)c1ccc2c(c1)OCCO2 | – | 1000 nM | – |
| C=CCSc1nc2ccccc2n1C(=O)c1ccc(C)cc1 | – | 5440 nM | – |
| Cc1ccc(C(=O)n2c(Cl)nc3ccccc32)cc1 | – | – | inhibition [2]: 61% |
| CSc1nc2ccccc2n1C(=O)c1ccsc1 | – | 2400 nM | – |
| CSc1nc2ccc(F)cc2n1C(=O)c1ccc(C)cc1 | – | 200 nM | – |
| CSc1nc2cc(C#N)ccc2n1C(=O)c1ccc(C)c(F)c1 | – | 890 nM | – |
| CSc1nc2ccccc2n1C(=O)c1ccccc1 | – | 2500 nM | – |
| CSc1nc2ccccc2n1C(=O)c1ccncc1 | < 4 | > 100000 nM | – |
| COc1ccc(C(=O)n2c(SC)nc3ccccc32)cc1OC | – | 4000 nM | – |
| CSc1nc2ccccc2n1C(=O)NCc1ccc(C)cc1 | < 4 | > 100000 nM | – |
| CSc1nc2ccccc2n1C(=O)c1cccc(C)c1 | – | 2100 nM | – |
| Cc1ccc(C(=O)n2c(CC#N)nc3ccccc32)cc1 | – | – | inhibition [2]: 68% |
| Cc1ccc(C(=O)n2c(N)nc3ccccc32)cc1 | < 4 | > 100000 nM | – |
| CSc1nc2ccc(C#N)cc2n1C(=O)c1ccc(C)c(F)c1 | – | 6300 nM | – |
| CSc1nc2cc(F)ccc2n1C(=O)c1ccc(C)c(F)c1 | – | 100 nM | – |
| CC(C)C[C@H](NC(=O)OCc1ccccc1)C(=O)N[C@@H](CC1CCNC1=O)C(O)S(=O)(=O)O (stereo not given in full) | – | – | IC50 [3]: 340 nM; pIC50 [3]: 6.47; IC50 [4]: 1 nM; IC50 [5]: 50 nM; pIC50 [5]: 7.33 |
| CSc1nc2ccccc2n1C(=O)c1ccccc1C(F)(F)F | < 4 | > 100000 nM | – |
| CCc1nc2ccccc2n1C(=O)c1ccc(C)cc1 | – | 6550 nM | – |

| SMILES | pIC50 [1] | IC50 ([1]; read-out: IC50) | further results |
| --- | --- | --- | --- |
| CSc1nc2ccc(F)cc2n1C(=O)c1ccc(C)c(F)c1 | – | 260 nM | – |
| Cc1ccc(C(=O)n2c(-c3ccccc3)nc3ccccc32)cc1 | < 4 | > 100000 nM | – |
| Cc1ccc(C(=O)n2c(C)nc3cc4c(cc32)OCCO4)cc1 | – | 7500 nM | – |
| CSc1nc2ccccc2n1C(=O)c1ccc(C)c(F)c1 | – | 90 nM | IC50 [3]: 1300 nM; pIC50 [3]: 5.89; IC50 [4]: > 100000 nM; IC50 [6]: 350 nM; IC50 [5]: 340 nM; pIC50 [5]: 6.47; IC50 [7]: > 100000 nM; EC50 (Human coronavirus 229E): 35600 nM |
| CSc1nc2cc(Cl)ccc2n1C(=O)c1ccc(C)cc1 | – | 550 nM | – |
| Cc1ccc(C(=O)n2c(C)nc3ccccc32)cc1F | – | 150 nM | IC50 [3]: 2800 nM; pIC50 [3]: 5.56; IC50 [4]: > 100000 nM; IC50 [6]: 2600 nM; IC50 [5]: 210 nM; pIC50 [5]: 6.67; IC50 [7]: > 100000 nM; EC50 (Human coronavirus 229E): 25400 nM |
| CSc1nc2ccccc2n1C(=O)c1ccc(C(F)(F)F)cc1 | – | 2720 nM | – |
| CSc1nc2ccccc2n1C(=O)c1ccc(C)c(Cl)c1 | – | 150 nM | – |
| CSc1nc2cc3c(cc2n1C(=O)c1ccc(C)c(F)c1)OCO3 | – | 70 nM | IC50 [3]: 2900 nM; pIC50 [3]: 5.53; IC50 [6]: 320 nM; pIC50 [5]: 6.49; EC50 (Human coronavirus 229E): 29200 nM |
| CSc1nc2ccccc2n1C(=O)c1ccc(C)cc1 | – | 390 nM | IC50 [3]: 5000 nM; pIC50 [3]: 5.3; IC50 [4]: > 100000 nM; ΔTm [8]: 4.2 °C; IC50 [6]: 1900 nM; IC50 [5]: 1600 nM; pIC50 [5]: 5.81; IC50 [7]: > 100000 nM |
| Cc1ccc(C(=O)n2nnc3ccccc32)cc1 | < 4 | > 100000 nM | – |
| CSc1nc2ccccc2n1C(=O)Cc1ccccc1 | < 4 | > 100000 nM | – |
| CSc1nc2ccccc2n1S(=O)(=O)c1ccc(C)cc1 | < 4 | > 100000 nM | – |
| COc1ccc(C(=O)n2c(SC)nc3ccccc32)cc1 | – | 3000 nM | – |
| CSc1nc2ccccc2n1C(=O)C1CC1 | – | – | inhibition [2]: 61% |
| CSc1nc2ccccc2n1C(=O)c1cccc(C(F)(F)F)c1 | – | 33700 nM | – |
| CSc1nc2ccccc2n1C(=O)c1ccc(Cl)cc1 | – | 1100 nM | – |
| COc1cc2nc(SC)n(C(=O)c3ccc(C)cc3)c2cc1OC | – | 6800 nM | – |

Source: ChEMBL document CHEMBL5608212, “N-acylbenzimidazoles as selective Acylators of the catalytic cystein of the coronavirus 3CL protease” (Eur J Med Chem, 2024)
